Measurements from PubChem BioAssay (NCI).
Where “and” joins values, the source holds several entries; their conditions need not be identical. Equal entries are not always repeated.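 Interpolation was linear, between the two tested concentrations surrounding the appropriate level; five concentrations were tested over 48 hours in 96-well plates. GI50: concentration for 50% inhibition of growth. TGI marks complete inhibition of growth.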

Assays:
Experiment in all cases: NCI anticancer screen, dose series, 48 h
U251 CNS = tested on: U251 CNS
SN12C renal = tested on: SN12C renal
PC-3 prostate = tested on: PC-3 prostate
MDA-MB-231 breast = tested on: MDA-MB-231 breast
SNB-78 CNS = tested on: SNB-78 CNS
KM20L2 colon = tested on: KM20L2 colon
K-562 leukemia = tested on: K-562 leukemia
A549 NSCLC = tested on: A549 NSCLC
CCRF-CEM leukemia = tested on: CCRF-CEM leukemia
TK-10 renal = tested on: TK-10 renal

Structure (SMILES) | GI50 (U251 CNS) | TGI (U251 CNS) | GI50 (SN12C renal) | TGI (SN12C renal) | GI50 (PC-3 prostate) | TGI (PC-3 prostate) | GI50 (MDA-MB-231 breast) | TGI (MDA-MB-231 breast) | GI50 (SNB-78 CNS) | TGI (SNB-78 CNS) | GI50 (KM20L2 colon) | TGI (KM20L2 colon) | GI50 (K-562 leukemia) | TGI (K-562 leukemia) | GI50 (A549 NSCLC) | GI50 (CCRF-CEM leukemia) | TGI (CCRF-CEM leukemia) | GI50 (TK-10 renal) | TGI (TK-10 renal) | TGI (A549 NSCLC)
COc1cccc2c1C(=O)c1c(O)c3c(c(O)c1C2=O)C[C@@](O)(C(=O)CO)C[C@@H]3OC1CC(N)CC(C)O1 (some centres not stated) | 22.4 nM and 31.1 nM | 2200 nM and 873 nM | 23.2 nM | 1430 nM and 1070 nM | 55.8 nM | 330 nM and 246 nM | 232 nM | 675 nM and 780 nM | 85 nM | 1730 nM and 2020 nM | 54.5 nM | 528 nM and 1410 nM | 24.3 nM and 41.4 nM | 783 nM and 406 nM | 9.92 nM and 10.7 nM and 31.5 nM | < 12.5 nM | 374 nM and 159 nM | 396 nM and 148 nM | 1550 nM and 3450 nM | –
CN(C)CCNC(=O)c1cccc2ccc(-c3ccc(O)cc3)nc12 | – | 10400 nM | – | 13200 nM | – | 8860 nM | – | 11600 nM | – | 20300 nM | – | 21700 nM | – | 3960 nM | – | – | 7250 nM | – | 9570 nM | 7170 nM
O=c1/c(=C/c2ccccc2[N+](=O)[O-])sc2nnc(-c3ccco3)n12 | – | 36600 nM | – | > 100000 nM | – | – | – | – | – | 72300 nM | – | > 100000 nM | – | > 100000 nM | – | – | 49800 nM | – | > 100000 nM | 60300 nM
COC(=O)C[C@](O)(CCCC(C)(C)O)C(=O)O[C@@H]1C(OC)=C[C@]23CCCN2CCc2cc4c(cc2[C@H]13)OCO4 | 22.3 nM | 564 nM and 72.8 nM | 40.5 nM | 666 nM and 526 nM | 28.8 nM | – | 87 nM | – | – | 285 nM | – | 338 nM | 29.2 nM | – | 95.3 nM and 23.8 nM | 28.2 nM | – | 34.7 nM | – | –
Cc1cn2c(=O)c3ncn(C4OC(CO)C(O)C4O)c3n(C)c2n1 (configuration not stated) | – | > 100000 nM | – | > 100000 nM | – | – | – | – | – | > 100000 nM | – | > 100000 nM | – | > 100000 nM | – | – | > 100000 nM | – | > 100000 nM | > 100000 nM
